From ChEMBL document CHEMBL6134821, “Design, synthesis, and biological evaluation of novel BTK-targeting proteolysis targeting chimeras (PROTACs) with enhanced pharmacokinetic properties” (Eur J Med Chem, 2025) come the findings set out here.

What all share (format): cell-based
In test [1] the target is T1, Protein cereblon/Tyrosine-protein kinase BTK (Homo sapiens, UniProt Q06187+Q96SW2). Kind of test: PROTAC activity at CRBN/BTK in human JeKo-1 cells assessed as BTK degradation at 30 nM incubated for 24 hrs by Western blot analysis relative to control.
In test [2] the target is T1, Protein cereblon/Tyrosine-protein kinase BTK. Kind of test: PROTAC activity at CRBN/BTK in human JeKo-1 cells assessed as BTK degradation at 10 nM incubated for 24 hrs by Western blot analysis relative to control.
For test [3] the target is unchanged. Description: PROTAC activity at CRBN/BTK in human JeKo-1 cells assessed as BTK degradation at 100 nM incubated for 24 hrs by Western blot analysis relative to control.

T1 sequence (Q06187 2-659 limits assumed): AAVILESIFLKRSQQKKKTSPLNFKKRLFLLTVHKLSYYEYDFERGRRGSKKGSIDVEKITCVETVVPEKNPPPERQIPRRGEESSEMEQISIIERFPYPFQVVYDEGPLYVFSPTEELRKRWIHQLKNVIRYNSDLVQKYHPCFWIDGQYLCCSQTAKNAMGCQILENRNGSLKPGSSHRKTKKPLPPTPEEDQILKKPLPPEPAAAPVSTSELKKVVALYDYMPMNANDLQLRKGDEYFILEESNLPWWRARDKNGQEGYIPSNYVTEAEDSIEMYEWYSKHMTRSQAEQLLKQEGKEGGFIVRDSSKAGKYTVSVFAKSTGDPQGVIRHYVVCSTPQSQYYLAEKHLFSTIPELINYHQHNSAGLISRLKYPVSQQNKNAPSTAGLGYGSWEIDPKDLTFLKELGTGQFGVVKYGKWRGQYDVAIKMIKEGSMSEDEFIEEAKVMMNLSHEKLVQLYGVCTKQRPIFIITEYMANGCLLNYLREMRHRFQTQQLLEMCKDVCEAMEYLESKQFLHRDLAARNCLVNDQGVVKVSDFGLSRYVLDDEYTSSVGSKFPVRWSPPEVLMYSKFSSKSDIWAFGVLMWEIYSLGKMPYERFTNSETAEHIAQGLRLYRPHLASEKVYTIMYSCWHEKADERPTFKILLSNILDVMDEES
T1 sequence (Q96SW2 whole entry partner): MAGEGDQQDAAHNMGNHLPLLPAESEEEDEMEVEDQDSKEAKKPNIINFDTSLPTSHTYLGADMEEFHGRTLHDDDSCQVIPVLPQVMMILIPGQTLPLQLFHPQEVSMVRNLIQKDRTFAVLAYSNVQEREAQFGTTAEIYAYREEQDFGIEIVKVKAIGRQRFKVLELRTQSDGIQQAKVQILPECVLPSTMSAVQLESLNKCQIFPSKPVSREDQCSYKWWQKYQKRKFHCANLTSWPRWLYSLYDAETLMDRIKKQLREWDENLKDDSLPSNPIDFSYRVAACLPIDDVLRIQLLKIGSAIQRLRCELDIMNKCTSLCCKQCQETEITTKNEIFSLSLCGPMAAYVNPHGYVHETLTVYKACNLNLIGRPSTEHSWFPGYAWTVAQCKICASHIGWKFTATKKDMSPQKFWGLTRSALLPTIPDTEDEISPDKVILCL

Regarding `Cc1ccc(C(=O)N2CCC(CCN3CCC(CC(=O)N[C@H]4CC[C@@H](Nc5ncnc6[nH]cc(C(=O)c7ccc(Oc8ccccc8)cc7Cl)c56)CC4)CC3)CC2)cc1N1CCC(=O)NC1=O`, the Activity in test [1] is 60%; in test [2], 26%; in test [3] it was 81%.

`O=C1CCC(n2ncc(N3CCC(CCN4CCC(CC(=O)N[C@H]5CC[C@@H](Nc6ncnc7[nH]cc(C(=O)c8ccc(Oc9ccccc9)cc8Cl)c67)CC5)CC4)CC3)c(Cl)c2=O)C(=O)N1` (some centres not stated): the figures for the Activity in test [1], in test [2] and in test [3] were 88%, 64% and 91%, respectively.

As for `O=C1CCC(c2ccc(N3CCC(CCN4CCC(CCN[C@H]5CC[C@@H](Nc6ncnc7[nH]cc(C(=O)c8ccc(Oc9ccccc9)cc8)c67)CC5)CC4)CC3)cc2)C(=O)N1` (some centres not stated), the Activity turned out to be 15% in test [1] and 39% in test [3].

`O=C1CCC(c2ccc(N3CCC(CCN4CCN(CC(=O)N[C@H]5CC[C@@H](Nc6ncnc7[nH]cc(C(=O)c8ccc(Oc9ccccc9)cc8)c67)CC5)CC4)CC3)cc2)C(=O)N1` (some centres not stated): the figures for the Activity in test [1], in test [2] and in test [3] were 36%, 15% and 53%, respectively.

For `O=C1CCC(N2Cc3cc(N4CCC(CCN5CCC(CC(=O)NC6CCN(c7ncnc8[nH]cc(C(=O)c9ccc(Oc%10ccccc%10)cc9Cl)c78)CC6)CC5)CC4)c(F)cc3C2=O)C(=O)N1` (configuration not stated), the Activity in test [1] is 76%; in test [2], 56%; in test [3] it was 88%.

As for `O=C1CCC(c2ccc(N3CCC(CN4CCC(CC(=O)N[C@H]5CC[C@@H](Nc6ncnc7[nH]cc(C(=O)c8ccc(Oc9ccccc9)cc8)c67)CC5)CC4)C3)cc2)C(=O)N1` (some centres not stated), the Activity in test [1] was 11%; in test [2], 4%; in test [3] it was 6%.

For the molecule `O=C1CCN(c2ccc(C(=O)N3CCC(CCN4CCC(CC(=O)N[C@H]5CC[C@@H](Nc6ncnc7[nH]cc(C(=O)c8ccc(Oc9ccccc9)cc8Cl)c67)CC5)CC4)CC3)cc2)C(=O)N1`, the Activity came to 9% in test [1] and 35% in test [3].

In the case of `O=C1CCC(N2Cc3cc(N4CCC(CCN5CCC(CC(=O)N[C@@H]6CCC[C@H](Nc7ncnc8[nH]cc(C(=O)c9ccc(Oc%10ccccc%10)cc9Cl)c78)C6)CC5)CC4)c(F)cc3C2=O)C(=O)N1` (some centres not stated), the results for the Activity in test [1], in test [2] and in test [3] were 46%, 41% and 54%, respectively.

For `O=C1CCC(c2cccc(N3CCC(CCN4CCC(CC(=O)N[C@H]5CC[C@@H](Nc6ncnc7[nH]cc(C(=O)c8ccc(Oc9ccccc9)cc8Cl)c67)CC5)CC4)CC3)c2)C(=O)N1` (some centres not stated), the results for the Activity in test [1], in test [2] and in test [3] were 62%, 45% and 77%, respectively.

Turning to `O=C1CCC(N2Cc3cc(N4CCC(CCN5CCC(CC(=O)N6CCN(c7ncnc8[nH]cc(C(=O)c9ccc(Oc%10ccccc%10)cc9Cl)c78)CC6)CC5)CC4)c(F)cc3C2=O)C(=O)N1` (configuration not stated), the Activity in test [1] worked out at 53%; in test [2] it was 65%; in test [3] it was 47%.

For `O=C1CCC(N2Cc3cc(N4CCC(CCN5CCC(CC(=O)N[C@H]6CC[C@H](Nc7ncnc8[nH]cc(C(=O)c9ccc(Oc%10ccccc%10)cc9Cl)c78)CC6)CC5)CC4)c(F)cc3C2=O)C(=O)N1` (some centres not stated), the Activity in test [1] came to 98%; in test [2], 80%; in test [3], 98%.

For the molecule `O=C1CCC(N2Cc3cc(N4CCC(CCN5CCC(CC(=O)N[C@H]6CC[C@@H](Nc7ncnc8[nH]cc(C(=O)c9ccc(Oc%10ccccc%10)cc9)c78)CC6)CC5)CC4)c(F)cc3C2=O)C(=O)N1` (some centres not stated), the Activity in test [1] came to 95%; in test [2] it was 87%; in test [3], 96%.

Take `O=C1CCN(c2cccc(C(=O)N3CCC(CCN4CCC(CC(=O)N[C@H]5CC[C@@H](Nc6ncnc7[nH]cc(C(=O)c8ccc(Oc9ccccc9)cc8Cl)c67)CC5)CC4)CC3)c2)C(=O)N1`: the Activity in test [3] was determined as 24%.

Regarding `O=C1CCC(c2ccc(N3CC4(CCN(CC(=O)N[C@H]5CC[C@@H](Nc6ncnc7[nH]cc(C(=O)c8ccc(Oc9ccccc9)cc8)c67)CC5)CC4)C3)cc2)C(=O)N1` (some centres not stated), the Activity in test [1] is 4%; in test [3], 23%.
